Tests used:
[1] = Aqueous solubility of crystalline salts of Q702 (slurried overnight in deionised water, HPLC); conditions: crystalline salts slurried overnight in deionised water (pH = 6.8); for pH of solution: solution pH measured
Description: (§1) Solubility was measured by a) solubility estimation by aliquot addition and b) HPLC: • a) Solubility estimation by aliquot-addition
(§2) Samples were held at ambient temperature for 18 hours to maximize the chance of precipitation. Any recoverable solids were analyzed by XRPD.
(§3) The HPLC method used to determine equilibrium solubility in a variety of solvents is outlined. […] A phenomenex Kinetex column was used with a particle size of 2.6 μm.

[2] = Dynamic Vapour Sorption (DVS) hygroscopicity; type: physicochemical; conditions: for total weight gain between 40-80% RH: DVS isothermal plot, 25° C.
Description: Dynamic Vapour Sorption (DVS) was performed using a Hiden Analytical Instruments IGAsorp Vapour Sorption Balance. Approximately 30 mg of sample was placed into a wire-mesh vapour sorption balance pan, loaded into the IGAsorp vapour sorption balance and held at 25° C.±0.1° C. The sample was subjected to a step profile from o to 90% RH at 10% increments, followed by desorption from 90% RH to 0% RH at 10% increments. The equilibrium criterion was set to 99.0% step completion within a minimum of 60 minutes and a maximum of 5 hours for each increment. The weight change during the sorption cycle was monitored, allowing for the hygroscopic nature of the sample to be determined. The data collection interval was in seconds.

[3] = Stress at 40° C./75% relative humidity for 15 days; type: physicochemical; conditions: 40° C./75% RH
Description: HCl form C was stressed at 40° C./75% relative humidity for 15 days.
Form A was stressed at 40° C./75% for 15 days. […] Solvent was not detected.

[4] = Pharmacokinetic study in plasma after oral administration; type: in vivo, male SD rats; conditions: 30 mg/kg; for AUC(0-t) / Cmax / Tmax / half-life: vehicle water
Description: In this example, pharmacokinetic studies are performed using the form A of the HCl-salt of Q702 and the free base (FB) thereof in plasma, following oral administration of such form A and free base to male SD rats.
Appropriate amounts of the form A of Q702 HCl or of free base were accurately weighed and mixed with appropriate volume of vehicle (water) to get a clear solution or uniform suspension. Male SD rats were dosed with a nominal dose of 30 mg/kg body weight. After dosing, 0.2 mL blood was collected per time point at time points o h, 0.083 h, 0.25 h, 0.5 h, 1 h, 2 h, 4 h, 8 h, 12 h, and 24 h. For such blood collection, blood was collected from the jugular vein or other suitable site of each animal into pre-chilled plastic microcentrifuged tubes containing 5 μL of 1000 IU heparin Na as anti-coagulant. Blood samples were processed for plasma by centrifugation at approximately 4° C., 3200 g for ten minutes. Plasma was collected and transferred into pre-labelled polypropylene tubes, snap-frozen over dry ice and kept at −60° C. or lower until LC-MS/MS-analysis was performed. LC-MS/MS methodology was performed using a calibration curve with at least 6 non-zero calibration standards.
Plasma concentrations versus time were plotted and analysed by non-compartmental approaches using the Phoenix WinNonlin 6.3 software program. Related pharmacokinetic parameters were calculated according to dosing route, e. g.

[5] = Long term stability of Form A of Q702 HCl salt; type: physicochemical
Description: Form A of […] HCl salt was tested for long term stability to 24 months.

[6] = Thermal stressing of amorphous Q702 HCl salt; type: physicochemical; conditions: 50° C., 7 days, under nitrogen in a sealed vial
[7] = Humidity stress using amorphous material; type: physicochemical; conditions: 6 days
Excerpt: X-ray amorphous material generated from freeze drying was exposed to various controlled humidity conditions for 6 days before analysis by XRPD. Both samples remained as amorphous material.

[8] = Solubility estimation by aliquot addition in solvents; type: physicochemical; conditions: organic solvent or mixture, thermodynamic from solid
Description: The aliquot volumes were typically 100-1000 μL. Complete dissolution of the test material was determined by visual inspection. The solubility was estimated from these experiments based on the total solvent used to provide complete dissolution. […] From the infrared (IR) transmission data of the sample vials, dissolution and precipitation events were recorded as the point of complete transmission of IR and the onset of turbidity by IR respectively. […] Any recoverable solids were analyzed by XRPD. […] HCl salt was estimated in 9 solvent systems using the aliquot addition method.

physchem = conditions: pH 6.8, water, thermodynamic from solid
Description: as §1, §2, §3

[9] = Humidity stress using crystalline material (HCl form C); type: physicochemical; conditions: 8 days
Description: Approximately 25 mg of […] […] HCl form C material and were stressed for 8 days. All samples remained as […] HCl form C material.

Tosylate
Aq Solub [1]: 0.026 mg/mL | pH of solution [1]: 4.26

CCCn1cc(OCC(F)(F)F)c(C(=O)Nc2ccc(Oc3ccnc4cc(OC)c(OC)cc34)cn2)n1.Cl [Q702 HCl form A, N-(5-((6,7-dimethoxyquinolin-4-yl)oxy)pyridin-2-yl)-1-propyl-4-(2,2,2-trifluoroethoxy)-1H-pyrazole-3-carboxamide hydrochloride]
total weight gain between 40-80% RH ([2]; hydrochloride): 0.5 % w/w | XRPD after stress ([3]; hydrochloride): remained as form A | plasma exposure level higher than that of the free base (mean AUC-values) ([4]; versus Q702 free base): 33% | AUC(0-t) ([4]; male, SD, rat, plasma): 430 µg·h/mL | Cmax ([4]; male, SD, rat, plasma): 37000 ng/mL | Tmax ([4]; male, SD, rat, plasma): 2.83 h | half-life ([4]; male, SD, rat, plasma): 10.3 h | bioavailability ([4]; male, SD, rat, plasma, test = form A of HCl-salt, ref = free base of Q702, read-out: relative bioavailability): 144% | Assay ([5]; 25 ± 2° C./60 ± 5% RH, 12 M): 94.0% | Purity ([5]; 25 ± 2° C./60 ± 5% RH, 12 M): 100.0% | XRPD ([5]; 25 ± 2° C./60 ± 5% RH, 12 M): Consistent | Assay ([5]; 25 ± 2° C./60 ± 5% RH, 24 M): 94.6% | Purity ([5]; 25 ± 2° C./60 ± 5% RH, 24 M): 99.9% | XRPD ([5]; 25 ± 2° C./60 ± 5% RH, 24 M): Consistent | Assay ([5]; 40 ± 2° C./75 ± 5% RH, 6 M): 94.8% | Purity ([5]; 40 ± 2° C./75 ± 5% RH, 6 M): 99.9% | XRPD ([5]; 40 ± 2° C./75 ± 5% RH, 6 M): Consistent | Assay ([5]; Initial): 95.9% | Purity ([5]; Initial): 99.9% | XRPD ([5]; Initial): Consistent | long term stability (XRPD results) ([5]; tested to 24 months): stable to 24 months

CCCn1cc(OCC(F)(F)F)c(C(=O)Nc2ccc(Oc3ccnc4cc(OC)c(OC)cc34)cn2)n1.Cl [amorphous Q702 HCl salt]
XRPD after thermal stress ([6]; listed as Amorphous Q702 HCl salt): remained amorphous | XRPD after thermal stress ([6]; listed as amorphous): amorphous | XRPD after humidity stress ([7]; 40° C./75% RH stress): amorphous | XRPD after humidity stress ([7]; 59% RH stress): amorphous

CCCn1cc(OCC(F)(F)F)c(C(=O)Nc2ccc(Oc3ccnc4cc(OC)c(OC)cc34)cn2)n1.Cl [Q702 HCl salt, N-(5-((6,7-dimethoxyquinolin-4-yl)oxy)pyridin-2-yl)-1-propyl-4-(2,2,2-trifluoroethoxy)-1H-pyrazole-3-carboxamide hydrochloride]
solubility ([8]; Acetone, 20° C., read-out: Solubility Range): < 20 mg/mL | solubility ([8]; Acetonitrile, 20° C., read-out: Solubility Range): < 20 mg/mL | solubility ([8]; Dichloromethane, 20° C., read-out: Solubility Range): 66 to 100 mg/mL | solubility ([8]; Dimethyl sulfoxide, 20° C., read-out: Solubility Range): > 201 mg/mL | solubility ([8]; Ethanol, 20° C., read-out: Solubility Range): 67 to 101 mg/mL | solubility ([8]; Ethyl acetate, 20° C., read-out: Solubility Range): < 20 mg/mL | solubility ([8]; Methanol, 20° C., read-out: Solubility Range): 49 to 66 mg/mL | solubility ([8]; Methyl tert-butyl ether, 20° C., read-out: Solubility Range): < 20 mg/mL | solubility ([8]; Tetrahydrofuran, 20° C., read-out: Solubility Range): < 20 mg/mL | solubility ([8]; in four of the 9 solvents at ambient temperature, read-out: solubility): > 20 mg/mL | solubility (physchem): 1.95 mg/mL

O=C(O)CCC(=O)C(=O)O [Ketoglutarate]
pH of solution [1]: 2.91

CCCn1cc(OCC(F)(F)F)c(C(=O)Nc2ccc(Oc3ccnc4cc(OC)c(OC)cc34)cn2)n1.Cl [HCl form C]
% Weight change ([9]; 40° C./75% RH stress): −1.96% | weight loss ([9]; 40° C./75% RH): 1.96% | % Weight change ([9]; 75% RH stress): −11.05% | weight loss ([9]; 75% RH stress): 11.05% | % Weight change ([9]; 98% RH stress): +2.99% | % Weight change ([9]; 98% RH stress, listed as Q702 HCl form C): 2.99% | total weight gain between 40-80% RH [2]: 0.7 % w/w | XRPD analysis of post DVS sample ([2]; after DVS analysis): no physical change in the sample was detected | hygroscopicity, European Pharmacopoeia classification ([2]; based on DVS weight gain 40-80% RH): slightly hygroscopic | XRPD after stress [3]: remained as HCl salt form C

CCCn1cc(OCC(F)(F)F)c(C(=O)Nc2ccc(Oc3ccnc4cc(OC)c(OC)cc34)cn2)n1 [Q702 free base, N-(5-((6,7-dimethoxyquinolin-4-yl)oxy)pyridin-2-yl)-1-propyl-4-(2,2,2-trifluoroethoxy)-1H-pyrazole-3-carboxamide]
AUC(0-t) ([4]; male, SD, rat, plasma): 323 µg·h/mL | Cmax ([4]; male, SD, rat, plasma): 33800 ng/mL | Tmax ([4]; male, SD, rat, plasma): 3.33 h | half-life ([4]; male, SD, rat, plasma): 10.9 h
